# How the values were obtained:
# [1] = tested on: 293T human cells; assay: In vitro biological activity assay: transfection of 293T cells, HIV-1 p24 antigen ELISA of supernatant; assay type: cell-based; conditions: N/P ratio of 3
# Method: The in vitro biological activity test of the NanoComp is performed by transfection of 293T human cells. 50,000 cells are plated in 96 well plate 19 hours before transfection, using DMEM culture medium (DMEM, 1% FBS, 1% L-glutamine, 1% Penicillin-Streptomycin). 0.5µg pDNA/NanoComp is added to each well followed by 21 hours incubation at 37°C in 5% CO2 air condition. During the incubation period, the HIV-specific protein antigens encoded by the pDNA are expressed and secreted into the culture medium. After 21 hours, the supernatant of the cells are collected, and HIV-1 p24 antigen ELISA is performed to quantify p24 protein produced by the pDNA.
# [2] = Side reaction of formulation solvent with PEIm (UV spectra after storage); assay type: physicochemical; conditions: room temperature, 2 month
# Method: • a) NanoComp formulations were prepared according to Example 1, using the same PEIm and pDNA at N/P ratio of 3, and different solvents: sterile water, physiological NaCl (0.9%), D(+)-Mannitol (10 mg/ml), Sorbitol (10 mg/ml), D(+)-Glucose (10 mg/ml), Mannose (10 mg/ml), Sucrose (10 mg/ml), Triethanolamine buffer (TEA) (pH 7.5), D(+)-Mannitol (10 mg/ml) in triethanolamine (TEA) buffer (pH 7.5), Sorbitol (10 mg/ml) in triethanolamine buffer (pH 7.5) and D(+)-Mannitol (10 mg/ml) and Glycerol (10 mg/ml) in triethanolamine buffer (pH 7.5). The biological activity is given procentual related to the biological activity of the formulation in sterile water. Results are shown in Fig. 7A. • b) PEIm solution, mixture of PEIm with Glucose (10%) and Mannitol (10%) respectively, NanoComp formulations with Glucose (10%) and Mannitol (10%) were prepared according to Example 1, the missing component in all mixtures were replaced with water, to ensure the same concentration of the components. The prepared solutions were stored at room temperature (approx. 25°C) for 2 month. UV spectra were recorded without dilution. […] The particle size of the formed complexes was measured using ZetaPALS, Brookehaven instrument freshly and after 6 days storage at room temperature.
compound,measurement,setting,value
"OC[C@@H](O)[C@@H](O)[C@H](O)[C@H](O)CO [mannitol, D(+)-Mannitol]",effect of solvent on the biological activity of the NanoComp compared to sterile water,[1],same improving effect on the biological activity
same,side reaction of solvent with PEIm over time,[2],without side reactions with PEIm
